Drawing on ChEMBL document CHEMBL6078660, “Goondomycins A-H: Carbocyclic ansa-Polyketides from an Australian Pasture Streptomyces with Selective Activity against Dirofilaria immitis” (J Nat Prod, 2024), this text covers EC50 and IC50 for 11 compounds.

The test system of series [1] is Dirofilaria immitis. The series can be described thus: Anthelmintic activity against Dirofilaria immitis microfilaria stage assessed as inhibition of motility incubated for approximately 72 hrs. Type of series: functional, organism-based.
Series [2] is described as follows: Cytotoxicity against human NCI-H460 cells incubated for 24 hrs by MTT assay. Type of series: toxicity, cell-based. (Tetrazolium assays rely on reduction of a dye to a coloured formazan, in cell work by metabolically active cells.)
Series [3] can be described thus: Cytotoxicity against human SW620 cells incubated for 24 hrs by MTT assay. Type of series: toxicity, cell-based, SW-620.
Series [4] deals with Haemonchus contortus. The series can be described thus: Anthelmintic activity against Haemonchus contortus L1 to L3 stage assessed as larvae development incubated for 4 days. Type of series: functional, organism-based. The following applies: 96 h.
For series [5], the system named is Escherichia coli. The series can be described thus: Antibacterial activity against Escherichia coli ATCC 11775 assessed as inhibition of bacterial growth incubated for 24 hrs by spectrophotometer based analysis. The following applies: ATCC 11775, 24 h. Type of series: functional, organism-based.
The subject of series [6] is Staphylococcus aureus. The series can be described thus: Antibacterial activity against Staphylococcus aureus ATCC 25923 assessed as inhibition of bacterial growth incubated for 24 hrs by spectrophotometer based analysis. Type of series: functional, organism-based. The following applies: ATCC 25923, 24 h.
Series [7] concerns Candida albicans. Put plainly: Antifungal activity against Candida albicans ATCC 10231 assessed as inhibition of fungal growth incubated for 48 hrs by spectrophotometer based analysis. Type of series: functional, organism-based. The following applies: ATCC 10231, 48 h.
Series [8] has as its system Dirofilaria immitis. Put plainly: Anthelmintic activity against Dirofilaria immitis L4 stage assessed as inhibition of motility incubated for approximately 72 hrs. Type of series: functional, organism-based.

The structures appear in SMILES notation. pEC50, pIC50: −log10 of the molar value. Peptide text beside a SMILES is read from it. * marks the point of attachment. NHCH2CH2OH = OCCN*; For = O=C*

Usually pEC50 stands for −log10 of the EC50, conventionally taken in molar units. For orientation: IC50 means the concentration needed to halve the response being measured. A lower IC50 goes with higher potency. By pIC50 is commonly meant −log10 of the IC50, conventionally taken in molar units. On to `CC1=C2O[C@]3(O)C=C2C(=C(O)C1=O)[C@@H]1O[C@@H](CC[C@H](C)/C=C(\C)C[C@@H](C)C[C@@H]3C)[C@H](C)[C@H](O)[C@@H]1C`, for which the pEC50 in series [1] is 5.39; in series [4] it was 4.31; in series [8], 4.74. Besides, the IC50 at 24 h in series [2] and in series [3] was above 30 µM each time. The pIC50 was below 4.52 in series [5], at most 5.44 in series [6] and below 4.52 in series [7].
`CC1=C2O[C@]3(O)C(N)=C2C(=C(O)C1=O)[C@@H]1O[C@@H](CC[C@H](C)/C=C(\C)C[C@@H](C)C[C@@H]3C)[C@H](C)[C@H](O)[C@@H]1C`: the pEC50 is 6.30 in series [1], 4.62 in series [4] and 5.30 in series [8]. For the same compound, the IC50 at 24 h in series [2] and in series [3] was above 30 µM each time. For the same compound, the figures for the negative logarithm of the IC50 (pIC50) in series [5], in series [6] and in series [7] were below 4.52, at most 5.44 and below 4.52, respectively.
Take `CC[C@H](C)[C@H]1O[C@]2(CC[C@@H]1C)C[C@@H]1C[C@@H](C/C=C(\C)[C@@H](O[C@H]3C[C@H](OC)[C@@H](O[C@H]4C[C@H](OC)[C@@H](O)[C@H](C)O4)[C@H](C)O3)[C@@H](C)/C=C/C=C3\CO[C@@H]4[C@H](O)C(C)=C[C@@H](C(=O)O1)[C@]34O)O2`: the pEC50 in series [4] was 9.00.
As to `CC1=c2oc3c(O)c2=C(C(=O)C1=O)[C@@H]1O[C@@H](CC[C@H](C)/C=C(\C)C[C@@H](C)C[C@@H]3C)[C@H](C)[C@H](O)[C@@H]1C`, the pEC50 is 6.70 in series [1], 4.37 in series [4] and 5.74 in series [8]. The IC50 at 24 h in series [2] and in series [3] was above 30 µM each time. Also, the values for the pIC50 in series [5], in series [6] and in series [7] were below 4.52, at most 5.44 and below 4.52, respectively.
For `CSC1=C2C3=C(C)C(=O)C(O)=C2[C@@H]2O[C@@H](CC[C@H](C)/C=C(\C)C[C@@H](C)C[C@H](C)[C@]1(O)O3)[C@H](C)[C@H](O)[C@@H]2C`, the pEC50 in series [1] is 6.52; in series [4], 4.52; in series [8], 5.85. The IC50 at 24 h in series [2] worked out at 13.5 µM; in series [3], 2.4 µM. Further, the pIC50 was below 4.52 in series [5], at most 5.44 in series [6] and below 4.52 in series [7].
As for `CC(C)C[C@H](NC(=O)[C@H](C)NC(=O)CNC(=O)[C@@H](NC=O)C(C)C)C(=O)N[C@@H](C)C(=O)N[C@H](C(=O)N[C@H](C(=O)N[C@H](C(=O)N[C@@H](Cc1c[nH]c2ccccc12)C(=O)N[C@@H](CC(C)C)C(=O)N[C@@H](Cc1c[nH]c2ccccc12)C(=O)N[C@@H](CC(C)C)C(=O)N[C@@H](Cc1c[nH]c2ccccc12)C(=O)N[C@@H](CC(C)C)C(=O)N[C@@H](Cc1c[nH]c2ccccc12)C(=O)NCCO)C(C)C)C(C)C)C(C)C` (For-VGALAVVVWLWLWLW-NHCH2CH2OH), the pEC50 in series [1] is 7.00.
For `CC1=C(O)C(=O)C2=C(C1=O)[C@H](S(=O)(=O)O)C(=O)[C@@H](C)C[C@H](C)C/C(C)=C/[C@@H](C)CC[C@@H]1O[C@@H]2[C@@H](C)[C@@H](O)[C@H]1C`, the pEC50 in series [1] is 4.68; in series [4], 4.36; in series [8] it was 4.36. For the same compound, the IC50 at 24 h in series [2] and in series [3] was above 30 µM each time. For the same compound, the pIC50 in series [5] was below 4.52; in series [6], at most 5.44; in series [7] it was below 4.52.
`C/C1=C\[C@@H](C)CC[C@@H]2O[C@@H](c3c(O)c(O)c(C)c4c3C(=O)[C@@](O)(O4)[C@@H](C)C[C@H](C)C1)[C@@H](C)[C@@H](O)[C@H]2C`: the pEC50 in series [1] was 5.89; in series [4], 4.30; in series [8], 4.62. Also, the 50% inhibitory concentration (IC50) at 24 h in series [2] and in series [3] was above 30 µM each time. For the same compound, the pIC50 is below 4.52 in series [5], at most 5.44 in series [6] and below 4.52 in series [7].
Regarding `CC[C@]1([C@H]2O[C@H]([C@@H]3O[C@](O)(CO)[C@@H](C)C[C@H]3C)C[C@H]2C)CC[C@@H]([C@@]2(C)CC[C@@]3(C[C@@H](O)[C@H](C)[C@H]([C@H](C)[C@H](OC)[C@H](C)C(=O)O)O3)O2)O1`, the pEC50 in series [8] was 6.40.
`CC1=C(O)C(=O)c2c3sc(c2C1=O)C(=O)[C@@H](C)C[C@H](C)C/C(C)=C/[C@@H](C)CC[C@@H](O)[C@H](C)[C@H](O)[C@@H]3C`: the pEC50 was 5.68 in series [1], 4.33 in series [4] and 4.72 in series [8]. The IC50 at 24 h in series [2] and in series [3] was above 30 µM throughout. Also, the pIC50 is below 4.52 in series [5], at most 5.44 in series [6] and below 4.52 in series [7].
With `CC(=O)N[C@@H](CSC1=C2C3=C(C)C(=O)C(O)=C2[C@@H]2O[C@@H](CC[C@H](C)/C=C(\C)C[C@@H](C)C[C@H](C)[C@]1(O)O3)[C@H](C)[C@H](O)[C@@H]2C)C(=O)O`, the pEC50 in series [1] is 5.44; in series [4], 4.41; in series [8], 4.66. Besides, the IC50 at 24 h in series [2] and in series [3] was above 30 µM in each case. The pIC50 in series [5] is below 4.52; in series [6] it was at most 5.44; in series [7], below 4.52.
